Molecular target: Beta-secretase 1 (Homo sapiens, UniProt P56817)
Test: In Vitro BACE1 Activity Assay
Details: pH 4.5; 22 °C
Procedure: The assay was performed using a 96-well format on a HPLC equipped with four 96-well plate holders. Test compounds were preincubated with enzymes for 30 min, followed by the addition of substrate. The solution was then incubated for an additional 30 min at room temperature. After the reaction was terminated, the solution was filtered, and the filtrate was subjected to HPLC analysis. The substrate and product were monitored by fluorescence detection (340nm excitation, 440 nm emission).

Sequence of Beta-secretase 1 (P56817 whole entry): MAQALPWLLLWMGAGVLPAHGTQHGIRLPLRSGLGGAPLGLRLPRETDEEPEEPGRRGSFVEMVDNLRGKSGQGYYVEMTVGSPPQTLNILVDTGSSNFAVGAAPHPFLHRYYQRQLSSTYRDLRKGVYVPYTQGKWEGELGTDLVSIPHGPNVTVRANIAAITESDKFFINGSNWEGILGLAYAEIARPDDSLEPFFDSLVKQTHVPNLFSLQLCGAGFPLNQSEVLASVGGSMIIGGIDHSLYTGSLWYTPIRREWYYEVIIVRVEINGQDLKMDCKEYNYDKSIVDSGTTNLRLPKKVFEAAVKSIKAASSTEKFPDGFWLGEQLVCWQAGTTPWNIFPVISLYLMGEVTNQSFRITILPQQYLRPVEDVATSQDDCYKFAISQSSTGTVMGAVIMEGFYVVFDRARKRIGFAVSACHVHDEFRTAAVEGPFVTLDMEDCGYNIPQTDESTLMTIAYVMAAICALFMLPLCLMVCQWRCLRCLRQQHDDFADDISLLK

SMILES	IC50 [µM]
C[C@H](NC[C@H](Cc1ccccc1)NC(=O)c1cc(C(=O)N[C@H](C)c2ccc(F)cc2)cc(N(C)S(C)(=O)=O)c1)C(=O)N1CCCC1C(=O)O (stereo partly drawn) [1-[(2S)-2-{[(2S)-2-[(3-{[(1R)-1-(4-fluorophenyl)ethyl]carbamoyl}-5-(N-methylmethanesulfonamido)phenyl)formamido]-3-phenylpropyl]amino}propanoyl]pyrrolidine-2-carboxylic acid]	17.2
CC(C)CNC(=O)[C@H](C)NC[C@H](Cc1ccccc1)NC(=O)c1cc(/C=C\[C@H]2C[C@@H]2C)cc(N(C)S(C)(=O)=O)c1 [N-[(1S)-1-benzyl-2-({(1S)-1-methyl-2-[(2-methylpropyl)amino]-2-oxoethyl}amino)ethyl]-3-{(Z)-2-[(1S,2S)-2-methylcyclopropyl]ethenyl}-5-[methyl(methylsulfonyl)amino]benzamide]	0.02
